In patent US20110197373A1, “Depilatory Article” (priority 2010, published 2011):

Test system: unwanted hair on skin
Assay: removal of hair from the skin with the depilatory article / thioglycolate salts
Type: in vivo, human
Details: thioglycolate salt as keratin reducing agent
Procedure: A second aspect being a method of removing hair from the skin is also provided by the present invention, comprising the steps of: • (a) applying a depilatory article according to the present invention to a surface of skin, preferably human skin, • (b) leaving said depilatory article in contact with the skin for a period of at least 1 minute, preferably 2 to 10 minutes, more preferably 2 to 8 minutes, • (c) removing said depilatory article from the surface of the skin, and • (d) preferably rubbing, scraping, rinsing or wiping the surface of the skin in the area to which the depilatory article was applied. The formulation was disposed to a thickness of 0.3 mm, width of 1.5 cm and length of 3.5 cm on a cast HDPE 85% LLDPE 15% polymer blend film (23 microns in thickness and cut to 4.6 cm in length and 3.2 cm in width) using a stencil and wiper blade, such that the area covered by the formulation was centered along the width of the film and 1 mm away from the perimeter edge of one end of the film's length.

With O=C([O-])CS.[K+] [potassium thioglycolate] the “effectiveness at removing hair from the skin” value was “effective at removing hair from the skin, even at low doses”.
